The results in this text go back to patent publication US20250206732A1, “COMPOUNDS AND METHODS FOR THE TARGETED DEGRADATION OF KRAS” (Arvinas Operations, Inc., priority 2022, published 2025).

This assay concerns the target T1, AsPC-1 HiBiT-KRASG12D (Homo sapiens, UniProt P01116, G12D).
T1 construct: insert the HiBiT tag onto the N-terminus of one or more of the endogenous KRAS alleles; endogenous in cells; host or cells: AsPC-1 (ATCC CRL-1682), CRISPR-Cas9 knock-in clone, one tagged allele
Description: HiBiT degradation assay (G12D), AsPC-1 HiBiT-KRASG12D cells. The following applies: 24 hours treatment; for Dmax: ASPC1, AsPC-1 HiBiT-KRASG12D cells, maximum degradation observed; for DC50: AsPC-1 HiBiT-KRASG12D cells, HiBiT luminescence. The format is cell-based. Put shortly:
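AsPC-1 cells carried a CRISPR knock-in of an N-terminal HiBiT tag on endogenous KRAS G12D. After 24 h compound treatment at 37 °C (triplicate), viability was read by alamar blue (4 h, fluorescence, normalized to DMSO). HiBiT-KRAS levels were then measured by Nano-Glo HiBiT lytic luminescence after 45 min at room temperature.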
A general note: HiBiT is a short tag that completes a luciferase, so light tracks the accessible tagged protein.

T1 sequence (P01116 1-188 isoform P01116-2 G12D): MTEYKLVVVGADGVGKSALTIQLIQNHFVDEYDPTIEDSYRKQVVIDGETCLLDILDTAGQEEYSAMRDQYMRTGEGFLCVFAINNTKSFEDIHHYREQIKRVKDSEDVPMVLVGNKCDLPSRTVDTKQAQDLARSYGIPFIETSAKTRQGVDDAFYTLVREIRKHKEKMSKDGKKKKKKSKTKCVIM

As for `CCc1cccc2cc(O)cc(-c3ncc4c(N5CC6CCC(C5)N6)nc(OCCN5CCC(F)(COc6cc([C@H](C(=O)N7C[C@H](O)C[C@H]7C(=O)N[C@@H](C)c7ccc(-c8scnc8C)cc7)C(C)C)on6)CC5)nc4c3F)c12` [Compound 337, (2S,4R)-1-[(2R)-2-{3-[(1-{2-[(4-{3,8-diazabicyclo[3.2.1]octan-3-yl}-7-(8-ethyl-3-hydroxynaphthalen-1-yl)-8-fluoropyrido[4,3-d]pyrimidin-2-yl)oxy]ethyl}-4-fluoropiperidin-4-yl)methoxy]-1,2-oxazol-5-yl}-3-methylbutanoyl]-4-hydroxy-N-[(1S)-1-[4-(4-methyl-1,3-thiazol-5-yl)phenyl]ethyl]pyrrolidine-2-carboxamide], the Dmax was in the range of 80 to 100% and the DC50 is less than 600 nM.
On the same counts, the results for `CCc1cccc2cc(O)cc(-c3ncc4c(N5CC6CCC(C5)N6)nc(OCCN5CCC(F)(CN6CCN(c7cc([C@@H](C(=O)N8C[C@H](O)C[C@H]8C(=O)N[C@@H](C)c8ccc(-c9scnc9C)cc8)C(C)C)on7)[C@@H](C)C6)CC5)nc4c3F)c12` [Compound 203, (2S,4R)-1-[(2S)-2-{3-[(2S)-4-[(1-{2-[(4-{3,8-diazabicyclo[3.2.1]octan-3-yl}-7-(8-ethyl-3-hydroxynaphthalen-1-yl)-8-fluoropyrido[4,3-d]pyrimidin-2-yl)oxy]ethyl}-4-fluoropiperidin-4-yl)methyl]-2-methylpiperazin-1-yl]-1,2-oxazol-5-yl}-3-methylbutanoyl]-4-hydroxy-N-[(1S)-1-[4-(4-methyl-1,3-thiazol-5-yl)phenyl]ethyl]pyrrolidine-2-carboxamide] are 20 to 60% and 1000 to 3000 nM.
On the same counts, the results for `Cc1ncsc1-c1ccc([C@H](C)NC(=O)[C@@H]2C[C@@H](O)CN2C(=O)[C@@H](c2cc(N3CCN(C(=O)OC[C@@H]4CC[C@]5(COc6nc(N7CC8CCC(C7)N8)c7cc(Cl)c(-c8cc(O)cc9ccccc89)c(F)c7n6)CCCN45)CC3)no2)C(C)C)cc1` (relative stereo) [Compound 328, [(3S,8S)-8-[[6-chloro-4-(3,8-diazabicyclo[3.2.1]octan-3-yl)-8-fluoro-7-(3-hydroxy-1-naphthyl)quinazolin-2-yl]oxymethyl]-1,2,3,5,6,7-hexahydropyrrolizin-3-yl]methyl 4-[5-[(1R)-1-[(2S,4R)-4-hydroxy-2-[[(1S)-1-[4-(4-methylthiazol-5-yl)phenyl]ethyl]carbamoyl]pyrrolidine-1-carbonyl]-2-methyl-propyl]isoxazol-3-yl]piperazine-1-carboxylate] are 80 to 100% and less than 600 nM.
Molecule `C#Cc1c(F)ccc2cccc(-c3ncc4c(N5CC6CCC(C5)N6)nc(OC[C@@]56CCCN5[C@H](COc5cc([C@H](C(=O)N7C[C@H](O)C[C@H]7C(=O)N[C@@H](C)c7ccc(-c8scnc8C)cc7)C(C)C)on5)CC6)nc4c3F)c12` [Compound 52, (2S,4R)-1-[(2R)-2-(3-{[(3S,7aS)-7a-{[(4-{3,8-diazabicyclo[3.2.1]octan-3-yl}-7-(8-ethynyl-7-fluoronaphthalen-1-yl)-8-fluoropyrido[4,3-d]pyrimidin-2-yl)oxy]methyl}-hexahydro-1H-pyrrolizin-3-yl]methoxy}-1,2-oxazol-5-yl)-3-methylbutanoyl]-4-hydroxy-N-[(1S)-1-[4-(4-methyl-1,3-thiazol-5-yl)phenyl]ethyl]pyrrolidine-2-carboxamide] gave a Dmax of 80 to 100% and a DC50 of less than 600 nM.
On the same counts, the results for `CCc1cccc2cc(O)cc(-c3ncc4c(N5CC6CCC(C5)N6)nc(OC[C@@]56CCCN5[C@H](CN5CCC(COc7cc([C@H](C(=O)N8C[C@H](O)C[C@H]8C(=O)N[C@@H](C)c8ccc(-c9scnc9C)cc8)C(C)C)on7)CC5)CC6)nc4c3F)c12` [Compound 96, (2S,4R)-1-[(2R)-2-{3-[(1-{[(3S,7aS)-7a-{[(4-{3,8-diazabicyclo[3.2.1]octan-3-yl}-7-(8-ethyl-3-hydroxynaphthalen-1-yl)-8-fluoropyrido[4,3-d]pyrimidin-2-yl)oxy]methyl}-hexahydro-1H-pyrrolizin-3-yl]methyl}piperidin-4-yl)methoxy]-1,2-oxazol-5-yl}-3-methylbutanoyl]-4-hydroxy-N-[(1S)-1-[4-(4-methyl-1,3-thiazol-5-yl)phenyl]ethyl]pyrrolidine-2-carboxamide] are 80 to 100% and less than 600 nM.
`C#Cc1c(F)ccc2cccc(-c3ncc4c(N5CC6CCC(C5)N6)nc(OC[C@@]56CCCN5[C@H](COc5cc([C@@H](C(=O)N7C[C@H](O)C[C@H]7C(=O)N[C@@H](C)c7ccc(-c8scnc8C)cc7)C(C)C)on5)CC6)nc4c3F)c12` [Compound 51, (2S,4R)-1-[(2S)-2-(3-{[(3S,7aS)-7a-{[(4-{3,8-diazabicyclo[3.2.1]octan-3-yl}-7-(8-ethynyl-7-fluoronaphthalen-1-yl)-8-fluoropyrido[4,3-d]pyrimidin-2-yl)oxy]methyl}-hexahydro-1H-pyrrolizin-3-yl]methoxy}-1,2-oxazol-5-yl)-3-methylbutanoyl]-4-hydroxy-N-[(1S)-1-[4-(4-methyl-1,3-thiazol-5-yl)phenyl]ethyl]pyrrolidine-2-carboxamide] displayed a DC50 greater than 3000 nM.
As to `C#Cc1c(F)ccc2cc(O)cc(-c3ncc4c(N5CC6CCC(C5)N6)nc(OCCN5CCC(CC6CN(c7cc([C@@H](C(=O)N8C[C@H](O)C[C@H]8C(=O)N[C@@H](C)c8ccc(-c9scnc9C)cc8)C(C)C)on7)C6)CC5)nc4c3F)c12` [Compound 217, (2S,4R)-1-[(2S)-2-(3-{3-[(1-{2-[(4-{3,8-diazabicyclo[3.2.1]octan-3-yl}-7-(8-ethynyl-7-fluoro-3-hydroxynaphthalen-1-yl)-8-fluoropyrido[4,3-d]pyrimidin-2-yl)oxy]ethyl}piperidin-4-yl)methyl]azetidin-1-yl}-1,2-oxazol-5-yl)-3-methylbutanoyl]-4-hydroxy-N-[(1S)-1-[4-(4-methyl-1,3-thiazol-5-yl)phenyl]ethyl]pyrrolidine-2-carboxamide], the Dmax lay within 20 to 60% and the DC50 fell in the range of 1000 to 3000 nM.
In the case of `CCc1cccc2cc(O)cc(-c3ncc4c(N5CC6CCC(C5)N6)nc(OC[C@@]56CCCN5[C@H](CN5CCC(COc7cc([C@@H](C(=O)N8C[C@H](O)C[C@H]8C(=O)N[C@@H](C)c8ccc(-c9scnc9C)cc8)C(C)C)on7)CC5)CC6)nc4c3F)c12` [Compound 97, (2S,4R)-1-[(2S)-2-{3-[(1-{[(3S,7aS)-7a-{[(4-{3,8-diazabicyclo[3.2.1]octan-3-yl}-7-(8-ethyl-3-hydroxynaphthalen-1-yl)-8-fluoropyrido[4,3-d]pyrimidin-2-yl)oxy]methyl}-hexahydro-1H-pyrrolizin-3-yl]methyl}piperidin-4-yl)methoxy]-1,2-oxazol-5-yl}-3-methylbutanoyl]-4-hydroxy-N-[(1S)-1-[4-(4-methyl-1,3-thiazol-5-yl)phenyl]ethyl]pyrrolidine-2-carboxamide], the Dmax lay in the range of 20 to 60% and the DC50 lay in the range of 600 to 1000 nM.
On the same counts, the results for `CCc1cccc2cc(O)cc(-c3ncc4c(N5CC6CCC(C5)N6)nc(OCCN5CCC(CC6(F)CCN(CC(=O)N[C@H](C(=O)N7C[C@H](O)C[C@H]7C(=O)N[C@@H](C)c7ccc(-c8scnc8C)cc7)C(C)(C)C)CC6)CC5)nc4c3F)c12` [Compound 260, (2S,4R)-1-[(2S)-2-(2-{4-[(1-{2-[(4-{3,8-diazabicyclo[3.2.1]octan-3-yl}-7-(8-ethyl-3-hydroxynaphthalen-1-yl)-8-fluoropyrido[4,3-d]pyrimidin-2-yl)oxy]ethyl}piperidin-4-yl)methyl]-4-fluoropiperidin-1-yl}acetamido)-3,3-dimethylbutanoyl]-4-hydroxy-N-[(1S)-1-[4-(4-methyl-1,3-thiazol-5-yl)phenyl]ethyl]pyrrolidine-2-carboxamide] are 80 to 100% and less than 600 nM.
The molecule `CCc1cccc2cc(O)cc(-c3ncc4c(N5CC6CCC(C5)N6)nc(N5CC(N6CCC(CC7CN(c8cc([C@@H](C(=O)N9C[C@H](O)C[C@H]9C(=O)N[C@@H](C)c9ccc(-c%10scnc%10C)cc9)C(C)C)on8)C7)CC6)C5)nc4c3F)c12` [Compound 180] yielded a DC50 greater than 3000 nM.
On the same count and under the same terms, as for `CCc1cccc2cc(O)cc(-c3ncc4c(N5CC6CCC(C5)N6)nc(OC[C@]56CCCN5[C@H](COC(=O)N5CCN(c7cc([C@@H](C(=O)N8C[C@H](O)C[C@H]8C(=O)N[C@@H](C)c8ccc(C#N)cc8)C(C)C)on7)CC5)CC6)nc4c3F)c12` [Compound 67, [(3S,7aR)-7a-{[(4-{3,8-diazabicyclo[3.2.1]octan-3-yl}-7-(8-ethyl-3-hydroxynaphthalen-1-yl)-8-fluoropyrido[4,3-d]pyrimidin-2-yl)oxy]methyl}-hexahydro-1H-pyrrolizin-3-yl]methyl 4-{5-[(2S)-1-[(2S,4R)-2-{[(1S)-1-(4-cyanophenyl)ethyl]carbamoyl}-4-hydroxypyrrolidin-1-yl]-3-methyl-1-oxobutan-2-yl]-1,2-oxazol-3-yl}piperazine-1-carboxylate], the figure is greater than 3000 nM.
With `Cc1ncsc1-c1ccc([C@H](C)NC(=O)[C@@H]2C[C@@H](O)CN2C(=O)[C@@H](c2cc(N3CCN(C(=O)OC[C@H]4CC[C@@]5(COc6nc(N7CC8CCC(C7)N8)c7cc(Cl)c(-c8cc(O)cc9ccccc89)c(F)c7n6)CCCN45)CC3)no2)C(C)C)cc1` (single isomer, unassigned) [Compound 329], the Dmax is 80 to 100% and the DC50 was less than 600 nM.

Broadly, the Dmax is the greatest extent of degradation seen. A lower Dmax goes with a partial loss of target. One may read the DC50 as the concentration at which degradation of the target reaches its halfway point. Higher therefore signals degradation only at high concentration.
